Data: patent US5162328A, “N-[3-[2-(1H-imidazol-1-yl)ethoxy]phenyl]-4-(2-thienyl)-2-pyrimidinamine and pharmacologically acceptable salts” (American Cyanamid Company, priority 1991, dated 1992)
“And” between values parts separate entries of the source, which are not always exact repeats. Equal values may be shown once.

Legend:
[1] = tested on: immunologically stimulated human basophils; assay: Inhibition of histamine release from immunologically stimulated human basophils; format: cell-based; details: for IC50: Homo sapiens
Text: The bronchospasm of allergic asthma is a consequence of the release of mediators, such as histamine and slow-reacting substances from mast cells. The role of mediator release in the induction of an asthmatic attack has been fully reviewed and documented; see […]. and Austen, K. F., Bronchial Asthma Mechanisms and Therapeutics, E. B. Weiss, Editor, Little, Brown and Company, Boston, 163, (1976); Lichtenstein, L. M., Asthma-Physiology, Immunopharmacology and Treatment, Second International Symposium, L. M. Lichtenstein and K. F. Austen, Editors, Academic Press, New York, 51, (1979); and Bell, S. C., et al., Annular Reports in Medicinal Chemistry, 14, 51, H. J. Hess, Editor, Academic Press, New York, (1979). The novel compounds of this invention have been tested by the procedure of Lichtenstein, L. M. and Osler, A. G., J. Exp. […] Dissolve 140.3 g of sodium chloride, 7.45 g of Trizma-Tris Pre-Set, Reagent Grade, pH 7.6 at 25° C. (Sigma Chemical Co.) in sufficient water to give a final volume of 2 liters. (Sigma chemical Co.) (30 mg/ml) Made to 0.075M and 0.5M respectively, with calcium chloride dihydrate and magnesium chloride hexahydrate. A 10 ml portion of 10× Tris Buffer and 1.0 ml of human albumin are diluted to 100 ml with water. A 10 ml portion of 10× Tris Buffer, 1.0 ml of human albumin, 0.8 ml of calcium stock and 0.2 ml of magnesium stock are diluted to 100 ml with water. Behring Diagnostics (Generally used at 10 μg protein/ml final concentration). Strength 1:100 (w:v) allergenic extract, Hollister-Stier Labs. Generally this is diluted 1:1000 to 1:10,000 (considering the vial as stock). Interdermal solutions or intramuscular preparations for hyposensitization, Hollister-Stier Labs. The final concentrations used are on the order of 1 PNU/ml. Using four 20 ml heparinized tubes, […] of blood are withdrawn from subjects with known histamine release to anti-IgE, ragweed antigen or other specific allergen. These 80 ml of blood are mixed with 20 ml of saline containing 0.6 g of dextrose and 1.2 g of dextran. The blood is allowed to sediment at room temperature in two 50 ml polycarbonate centrifuge tubes until a sharp interface develops between the red cells and plasma (60-90 minutes). The plasma, containing the leukocytes, (top) layer from each tube, is withdrawn by pipet and transferred to 50 ml polycarbonate tubes. The plasma is centrifuged for 8 minutes at 110× G at 4° C. The supernatant is carefully poured off as completely as possible and the cell button is resuspended in 2-3 ml of Tris-A buffer using a siliconized Pasteur pipet. The resuspension is accomplished by drawing the liquid gently in an out of the pipet, with the tip below the liquid until an even suspension of cells is obtained. […]

[2] = tested on: passive cutaneous anaphylaxis lesions in the rat; assay: Rat Passive Cutaneous Anaphylaxis Assay (PCA); format: in vivo, rat (male Wistar strain); details: for Lesion Area (Low IgE) / Lesion Area (High IgE): mean ± SD
Method: Solutions made by dissolving 0.50 g in 100 ml of normal saline. Mouse monoclonal IgE (ICN Biochemicals) clone SPE-7 directed against DNP is subdivided into 50 ul aliquots and stored at -70° C. DNP-ovalbumin is made by reacting DNP sulfonic acid with ovalbumin dissolved in saline overnight at room temperature. The resulting solution is dialyzed extensively at 4 C to remove unreacted DNPsulfonic acid and stored as 1 mL aliquots of 100 mg/ml at -70° C. Male Wistar strain rats, certified viral free, weighing 250-300 g are obtained from Hilltop Laboratory Animals and housed, in accordance with AALAC standards, on site for at least one week before use. Forty-eight hours before challenge the rats are shaved on the dorsal surfaces and returned to the cages. Twenty-four hours before challenge the rats are given intradermal injections of 0.1 mL, one on each flank, of saline containing IgE at concentrations ranging from 1000 to 250 ng/mL. These injections give a local dose of 100 to 25 ng IgE. The IgE binds to specific receptors on mast cells in the skin. […] To the Evan's blue dye is added sufficient DNP-ovalbumin to make a 1 mg/ml solution. This allergen containing dye is injected intravenously via a tail vein into the rats at 10 ml/Kg. The Evans' blue binds to plasma albumin and remains in the vascular space under conditions of normal capillary permeability. The allergen, which can diffuse into the extravascular space, binds to the IgE on the surface of the cutaneous mast cells and initiates the immediate hypersensitivity response which leads to the release of histamine by intracellular granules of the mast cell. The histamine causes an increase in capillary permeability which allows plasma proteins including the dye tagged albumin to diffuse into the extracellular space resulting in a blue spot in the skin. The size of the lesion is proportional to the amounts of mediators released. This process reaches an optimum in 30 minutes. Thirty minutes after challenge the rats are euthanized by CO2. The skin is reflected from the back and the lesion areas estimated as the product of the largest diameter of the bluespot and the diameter perpendicular to it. A compound which is a mediator release inhibitor will reduce the spot area. The effectiveness of the compounds is determined by Analysis of Variance of the lesion areas grouped by IgE dose and compound. Compounds are considered active at the P<0.05 level. Table II contains the results of the experiments expressed as the areas of the lesions in mm^2. The control lesions for these experiments are also listed. Because more than one compound at a time is tested, some of the control values are repeated in the table. Table III contains the data expressed as a % of the appropriate control.

[3] = 0.5 mg/kg PO 2 hrs, IgE 50 ng/site
[4] = compared with the two compounds of U.S. Pat. No. 4,788,195

| SMILES | IC50 [1] [µM] | Lesion Area (Low IgE) ([2]; 0.5 mg/kg PO 2 hrs, IgE 25 ng/site, dihydrochloride) | Lesion Area (High IgE) [2, 3] [mm^2] | Lesion Area (High IgE) ([2]; 0.5 mg/kg PO 2 hrs, IgE 100 ng/site, dihydrochloride) | % CONTROL (lesion area) ([2]; 0.5 mg/kg PO @ 2 hrs, dihydrochloride) | Lesion Area (Low IgE) ([2]; 1.0 mg/kg PO 2 hrs, IgE 25 ng/site) [mm^2] | Lesion Area (High IgE) ([2]; 1.0 mg/kg PO 2 hrs, IgE 50 ng/site) [mm^2] | % CONTROL (lesion area) ([2]; 1 mg/kg PO @ 2 hrs) [%] | Lesion Area (Low IgE) ([2]; 0.25 mg/kg PO 2 hrs, IgE 33 ng/site) [mm^2] | Lesion Area (High IgE) ([2]; 0.25 mg/kg PO 2 hrs, IgE 50 ng/site) [mm^2] | % CONTROL (lesion area) ([2]; 0.25 mg/kg PO @ 2 hrs) [%] | Lesion Area (Low IgE) ([2]; 0.5 mg/kg PO 2 hrs, IgE 33 ng/site) [mm^2] | % CONTROL (lesion area) ([2]; 0.5 mg/kg PO @ 2 hrs) [%] | Lesion Area (Low IgE) ([2]; 2.5 mg/kg PO 2 hrs, IgE 25 ng/site) [mm^2] | Lesion Area (High IgE) ([2]; 2.5 mg/kg PO 2 hrs, IgE 100 ng/site) [mm^2] | % CONTROL (lesion area) ([2]; 2.5 mg/kg PO @ 2 hrs) [%] | activity in basophil histamine release assay (in words) [1, 4] | activity in rat PCA test (in words) [2, 4] |
| --- | --- | --- | --- | --- | --- | --- | --- | --- | --- | --- | --- | --- | --- | --- | --- | --- | --- | --- |
| Cc1cc(Nc2nccc(-c3ccncc3)n2)ccc1N.Cl.Cl [Compound 2, 2-methyl-N^4-[4-(4-pyridinyl)-2-pyrimidinyl]-1,4-benzenediamine dihydrochloride, reference compound] | 0.9 | 135 ± 20 mm^2 and 97 ± 7 mm^2 and 105 ± 12 mm^2 | 157 ± 15 | 217 ± 35 mm^2 and 362 ± 62 mm^2 | 113.6% and 74.6% and 81% | 10 ± 15 | 123 ± 16 | 57.9 |  |  |  |  |  |  |  |  |  |  |
| CCN(CC)CCOc1ccc(Nc2nccc(-c3ccncc3)n2)cc1.Cl.Cl [Compound 3, N-[4-[2-(diethylamino)ethoxy]phenyl]-4-(4-pyridinyl)-2-pyrimidinamine dihydrochloride, reference compound] | 0.2 ± 0.02 |  | 149 ± 22 |  |  |  |  |  | 108 ± 26 | 215 ± 24 | 45.1 | 68 ± 44 | 28.6 | 54 ± 38 | 105 ± 47 | 33.7 |  |  |
| c1cc(Nc2nccc(-c3cccs3)n2)cc(OCCn2ccnc2)c1 [N-[3-[2-(1H-imidazol-1-yl)ethoxy]phenyl]-4-(2-thienyl)-2-pyrimidinamine] |  |  |  |  |  |  |  |  |  |  |  |  |  |  |  |  | essentially equivalent high activity | essentially equivalent high activity |
